This is an account of results in patent publication US8334403B1, “C-lysine conjugates as pH-controlled, light-activated reagents for double stranded DNA cleavage and associated methods” (Florida State University Research Foundation, Inc., priority 2005, dated 2012).

A short description of data set [1]: UV-absorption titration determination of pKa. In kind it is physicochemical. The settings on record: absorption. How it is done: General information. ^1H, ^13C and ^19F NMR were collected on a Varian Gemini 300 MHz NMR spectrometer and a Bruker 300 MHz NMR spectrometer. Mass spectrometry data was collected on a Jeol JMS-600H. UV spectra were recorded on a Shimadzu UV-2100. Fluorescence spectra were obtained with SPEX FluoMax spectrofluorimeter using right-angle geometry. pH was adjusted with AB 15 plus pH meter (Accument) after standardization at 25° C. All buffers were prepared and pH-adjusted at room temperature (25° C.). Plasmid DNA Photocleavage. pBR322 plasmid DNA (4,361 b/p; from BioLabs Inc., 1 μg/μL solution in 10 mM Tris-HCl (pH 8.0), and 1 mM EDTA buffer) was diluted to a concentration of 0.01 μg/μL. The solution containing cleavage agent, DNA (30 μM/bp) in 20 mM sodium phosphate buffer was incubated for 1 hour at 30° C. Samples were placed on ice at a distance of 20 cm from 200 W Hg—Xe lamp (Spectra-Physics, Laser & Photonics Oriel Instruments with long pass filter with 324 nm cut-off wavelength). Electrophoretic Analysis. The gel electrophoresis was carried out in 1×TBE buffer at 80 V using Miligel FisherBiotech Horizontal Electrophoresis System. All gels were run on 1% agarose slab gels. Before loading, the DNA samples were mixed with 0.33 volume of tracking dye containing bromophenol blue (0.25%) and glycerol (30%) in water. After staining in ethidium bromide solution (2 μg/ml) for 1 hour, the gel was washed with water and pictures were taken with Polaroid 3000ISO type 667 film. The relative quantities of the supercoiled, nicked, and linear DNA were calculated by integrating the “area” of each spot by the image analyzer software Total/Lab (Nonlinear Dynamics Ltd., UK). The amount of supercoiled DNA was multiplied by factor of 1.4 to account for reduced ethidium bromide intercalation into supercoiled DNA. pH titration by ^1H-NMR. pH* of compound 8 (3 mM) solution in D2O containing 0.05 wt % 3-(trimethylsilyl)propionic-2,2,3,3-d4 acid, sodium salt (TSP-d4) was adjusted with 10 wt % DCI and NaOD in D2O at 25° C. under argon purged condition. Spectrometric determinations of pKa. pH of 10 μM of compound solution in H2O was adjusted with 10, 100 mM HCl (aq) and NaOH (aq) solution under argon purged condition. Excitation wavelength was 330 nm and polymethacrylate fluorimeter cuvettes were used. Absorbance and fluorescence titration with DNA. The concentrations of calf thymus DNA stock solution was determined spectophotometrically using the following molar absorptovity values: 1.32×10^4 M^−1 cm^−1 (per base pair) at 260 nm. All experiments were done in 20 mM sodium phosphate buffer at 25° C. and polymethacrylate fluorimeter cuvettes were used. The same amount of DNA was added to both sample and reference cuvettes during UV/Vis titration. Determination of excited state lifetimes. The concentration of compound solution was 10 μM in 20 mM sodium phosphate buffer. The photoluminescence lifetime measurements were conducted by exciting the samples with the output of a Nd:VO—4 (Spectra-Physics Vanguard, 2 W, 532 nm, 76 MHz, 10 ps) pumped R6G dye laser (Coherent 702-1). The output of the dye laser (600 nm, Rhodamine 6G) was cavity dumped at 1.9 MHz and frequency doubled using a BBO crystal to excite the fluorophore (the excitation wavelength used was 290 nm). Samples were excited with <1 mW power and the emission was collected at right angles onto a Chromex S3 500 is 0.5 m imaging monochromator with a 50 g/mm grating and 0.5 nm resolution. […]

Data set [2] has as its system calf thymus (CT) DNA. In words: UV-Vis absorbance titration with DNA. Conditions: 20 mM phosphate buffer. It is filed as binding. How it is done: General information. ^1H, ^13C and ^19F NMR were collected on a Varian Gemini 300 MHz NMR spectrometer and a Bruker 300 MHz NMR spectrometer. Mass spectrometry data was collected on a Jeol JMS-600H. UV spectra were recorded on a Shimadzu UV-2100. Fluorescence spectra were obtained with SPEX FluoMax spectrofluorimeter using right-angle geometry. pH was adjusted with AB 15 plus pH meter (Accument) after standardization at 25° C. All buffers were prepared and pH-adjusted at room temperature (25° C.). Plasmid DNA Photocleavage. pBR322 plasmid DNA (4,361 b/p; from BioLabs Inc., 1 μg/μL solution in 10 mM Tris-HCl (pH 8.0), and 1 mM EDTA buffer) was diluted to a concentration of 0.01 μg/μL. The solution containing cleavage agent, DNA (30 μM/bp) in 20 mM sodium phosphate buffer was incubated for 1 hour at 30° C. Samples were placed on ice at a distance of 20 cm from 200 W Hg—Xe lamp (Spectra-Physics, Laser & Photonics Oriel Instruments with long pass filter with 324 nm cut-off wavelength). Electrophoretic Analysis. The gel electrophoresis was carried out in 1×TBE buffer at 80 V using Miligel FisherBiotech Horizontal Electrophoresis System. All gels were run on 1% agarose slab gels. Before loading, the DNA samples were mixed with 0.33 volume of tracking dye containing bromophenol blue (0.25%) and glycerol (30%) in water. After staining in ethidium bromide solution (2 μg/ml) for 1 hour, the gel was washed with water and pictures were taken with Polaroid 3000ISO type 667 film. The relative quantities of the supercoiled, nicked, and linear DNA were calculated by integrating the “area” of each spot by the image analyzer software Total/Lab (Nonlinear Dynamics Ltd., UK). […] Absorbance and fluorescence titration with DNA. The concentrations of calf thymus DNA stock solution was determined spectophotometrically using the following molar absorptovity values: 1.32×10^4 M^−1 cm^−1 (per base pair) at 260 nm. […]

Data set [3] relates to calf thymus (CT) DNA. In words: Fluorescence (emission) titration with DNA. It is filed as binding. The settings on record: 10 μM, 20 mM phosphate buffer. How it is done: (§1) General information. ^1H, ^13C and ^19F NMR were collected on a Varian Gemini 300 MHz NMR spectrometer and a Bruker 300 MHz NMR spectrometer. Mass spectrometry data was collected on a Jeol JMS-600H. UV spectra were recorded on a Shimadzu UV-2100. Fluorescence spectra were obtained with SPEX FluoMax spectrofluorimeter using right-angle geometry. pH was adjusted with AB 15 plus pH meter (Accument) after standardization at 25° C. All buffers were prepared and pH-adjusted at room temperature (25° C.). Plasmid DNA Photocleavage. pBR322 plasmid DNA (4,361 b/p; from BioLabs Inc., 1 μg/μL solution in 10 mM Tris-HCl (pH 8.0), and 1 mM EDTA buffer) was diluted to a concentration of 0.01 μg/μL. The solution containing cleavage agent, DNA (30 μM/bp) in 20 mM sodium phosphate buffer was incubated for 1 hour at 30° C. […] The relative quantities of the supercoiled, nicked, and linear DNA were calculated by integrating the “area” of each spot by the image analyzer software Total/Lab (Nonlinear Dynamics Ltd., UK). […] Absorbance and fluorescence titration with DNA. The concentrations of calf thymus DNA stock solution was determined spectophotometrically using the following molar absorptovity values: 1.32×10^4 M^−1 cm^−1 (per base pair) at 260 nm. […]

A further data set relates to CT DNA. In words: Ethidium bromide displacement assay. It is filed as binding, calf. Conditions: 10 μM ethidium bromide, 10 μM CT DNA. How it is done: as §1
The subject of the next data set is UMRC3 cells. As to the kind of experiment: RCC cell proliferation assay, UMRC3. Conditions: Homo sapiens, UMRC3, UV 350 nm 10 minutes, 72 hours. It is filed as cell-based. How it is done: (§2) FIG. 23 provides the results of cell proliferation assays using three different RCC cell lines: (a) UMRC3, (b) UMRC6 and (c) 786-O, and compounds I-5; RCC cells were resuspended in media and treated with UV radiation (350 nm) for 10 minutes with and without indicated compounds; control cells were exposed to the indicated compound 1-5 at final concentration of 10 μM; cell numbers determined after 72 hours as described in the SI Section;
(§3) The ability of compounds 1-5 to inhibit cell proliferation in three human clear cell renal cell carcinoma (RCC) cell lines was tested in the dark and under photoactivation (FIG. 23). No difference was detected in the control experiments between cells not exposed to UV versus those that were exposed to UV at 350 nm for 10 minutes in any of the three RCC cell lines tested (FIG. 23 A, B & C; first two columns).

A further data set has as its system UMRC6 cells. As to the kind of experiment: RCC cell proliferation assay, UMRC6. In kind it is cell-based. The settings on record: Homo sapiens, UMRC6, UV 350 nm 10 minutes, 72 hours. How it is done:
as §2, §3

Data set [4] concerns three human clear cell renal cell carcinoma (RCC) cell lines (UMRC3, UMRC6, 786-O). In words: RCC cell proliferation assay, three cell lines together. It is filed as cell-based. The settings on record: 10 μM. How it is done: as §2, §3
In data set [5] the test system is LNCap human prostate adenocarcinoma cells. In words: LNCap cell proliferation assay. It is filed as cell-based.
Data set [6] in a line: Solubility / aggregation in water. It is filed as physicochemical. The settings on record: higher pH values (~8). The text has this:
The decrease in solubility leads to the apparent aggregation and distortion of potentiometric curves at the higher pH. This distortion prevents accurate curve fitting (see FIG. 25). Thus, we had to resort to alternative spectral methods. Fortunately, there is a selection of convenient procedures which provide complementary information which can be used for cross-checking the accuracy of the alternative approaches.

`Cl.Cl.NCCCC[C@H](N)C(=O)Nc1ccc(C#Cc2c(F)c(F)nc(F)c2F)cc1` [Compound 4, (S)-2,6-Diamino-hexanoic acid [4-(2,3,5,6-tetrafluoro-pyridin-4-ylethynyl)-phenyl]-amide dihydrochloride] returned a pKa1 in [1] (α-amino group (4, 6), ε-amino group (7)) of 6.9. Moreover, the pKa2 result in [1] (ε-amino group) is “-/9.5”. The “hypochromicity on titration with DNA” value in the data set with calf thymus (CT) DNA [2] (pH 5.5, 10 μM) was found to be 20%; in the data set on calf thymus (CT) DNA [2] (pH 7, 10 μM) it was 14%; with calf thymus (CT) DNA [2] (pH 8, 10 μM), 12%. For the same compound, the “change in fluorescence upon DNA titration” value in the data set on calf thymus (CT) DNA [3] was “increase in fluorescence”. The “displacement of intercalated ethidium bromide from its complex with DNA” value with CT DNA is reported as “does not lead to the displacement”. Moreover, the figures for the mortality at 10 µM with UMRC3 cells and with UMRC6 cells were 94% and 90%, respectively. In addition, in [4], the “cytotoxicity in the dark” value is “considerably less cytotoxic in the dark”. In addition, the LNCap cells destroyed result in data set [5] (10 nM, UV 10 minutes, counted after 48 h) was “more than 90%”. Moreover, in data set [5] (no UV), the toxicity without light entry is “almost no toxicity”. The aggregation and precipitation entry in data set [6] is “does not aggregate and precipitate”.
